Series [1] has as its target T1, SRC-2 (Homo sapiens, UniProt Q15596).
T1 construct: expressed in transfected cells; host or cells: HeLa
As to the kind of experiment: Gal4 luciferase reporter assay (pBIND-SRC-2 + pG5-LUC) in HeLa cells. Conditions: 24-hour treatment, 5-8 μM, maximum over SRC-1/-2/-3. Format: cell-based. Here is the method: The constructs expressing the Gal4 responsive luciferase reporter (pG5-luc), Gal4 DBD fusion with SRC-1, […] (pBIND-SRC-1/-2/-3), MMP2 or MMP13 promoter driven luciferase reporter (MMP2-luc, MMP13-luc) were prepared. Twenty-four hours before transfection, HeLa cells were plated in 24-well dishes. The indicated expression plasmids were transfected into cells using Lipofectamine 2000 according to the manufacturer's instructions.
After various compound treatments, cells were lysed in luciferase lysis buffer and assayed for luciferase activity using the ONE-Glo luciferase assay system (Promega, Madison, Wis.). All luciferase activities were normalized to protein concentration determined by Bradford assay (Bio-Rad, Hercules, Calif.).
(In general: In a reporter assay the amount or activity of a reporter protein is the signal.)

In series [2] the test system is PGC-1α. The series can be described thus: Gal4-PGC-1α + pG5-LUC luciferase assay in HeLa cells. Format: cell-based. The settings on record: 24 hours, 2-10 μM.
Series [3] deals with T2, VP16 (Human herpesvirus 1, UniProt P06492).
T2 construct: expressed in transfected cells; host or cells: HeLa
T2 sequence (P06492 413-490): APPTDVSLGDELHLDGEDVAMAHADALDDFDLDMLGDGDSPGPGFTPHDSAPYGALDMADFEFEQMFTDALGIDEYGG
The series can be described thus: Gal4-VP16 + pG5-LUC luciferase assay in HeLa cells. Format: cell-based. The settings on record: 24 hours, only at higher compound concentrations.

For series [4], the target named is T3, basic helix-loop-helix (bHLH) domain of SRC-3 (Homo sapiens, UniProt Q9Y6Q9).
T3 construct: MCB-613 also affected the fluorescence of the basic helix-loop-helix (bHLH) domain; made in house
T3 sequence (Q9Y6Q9 25-82 limits assumed): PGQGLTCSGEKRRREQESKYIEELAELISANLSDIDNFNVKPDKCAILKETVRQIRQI
As to the kind of experiment: Fluorescence spectroscopy, intrinsic fluorescence of GST SRC-3 bHLH. In kind it is binding. Conditions: 1.5 μM GST SRC-3 bHLH. The protocol: (§1) Fluorescence spectrometric measurements were performed on a SLM 48000S fluorescence spectrophotometer (SLM-Aminco, Rochester, N.Y.) and an Agilent Cary Eclipse Fluorescence spectrophotometer (Agilent Technologies, Inc., Santa Clara, Calif.) using the GST fusion proteins of different portions of SRC-3 expressed and purified. A total of 1.5 μM of GST SRC-3 RID, CID or bHLH was placed in a fluorescence cuvette and excited by UV light at a wavelength of 278 nm with a 2 nm bandwidth and the emission spectra were recorded from 290 nm to above 500 nm with a bandwidth of 4 nm. The aliquot size of test compound was maintained below 5% of the total sample volume in order to minimize the effects of dilution.

The target in series [5] is T4, CBP interacting domain (CID) of SRC-3 (Homo sapiens, UniProt Q9Y6Q9).
T4 construct: made in house
T4 sequence (Q9Y6Q9 1023-1093 limits assumed): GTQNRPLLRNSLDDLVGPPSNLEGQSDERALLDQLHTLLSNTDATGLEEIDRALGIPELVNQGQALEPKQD
The series can be described thus: Fluorescence spectroscopy, intrinsic fluorescence quenching of GST SRC-3 CID. Conditions: 1.5 μM GST SRC-3 CID. Format: binding. Here is the method: as §1

The subject of series [6] is MCF-7 (breast) cells. As to the kind of experiment: MTS cell viability assay, MCF-7. Format: cell-based. The settings on record: MCF-7, 48 hours. The protocol: (§2) Cell lines were maintained in DMEM (HeLa, MCF-7, HepG2), RPMI 1640 (H1299), or DMEM/F12 (PC-3) supplemented with 10% fetal calf serum, penicillin and streptomycin (100 U/ml). Primary mouse hepatocytes were isolated and cultured. Mouse embryonic fibroblasts (MEF) were cultured in DMEM. All cells were maintained at 37° C. under 5% CO2.
(§3) Cells were seeded in 96-well plates and allowed to reach 70% to 80% confluence. After indicated compound treatments, relative numbers of viable cells were measured by MTS assay using the Cell Titer 96 Aqueous One Solution Cell Proliferation Assay (Promega).
(In general: Tetrazolium dyes change colour on reduction, which living cells bring about.)

For series [7], the system named is PC-3 (prostate) cells. The series can be described thus: MTS cell viability assay, PC-3. Format: cell-based. Conditions: PC-3, 48 hours. The protocol:
as §2, §3

Series [8] deals with H1299 (lung) cells. The series can be described thus: MTS cell viability assay, H1299. In kind it is cell-based. The settings on record: H1299, 48 hours. The protocol:
as §2, §3

The subject of series [9] is mouse primary hepatocytes. The series can be described thus: MTS cell viability assay, mouse primary hepatocytes. Conditions: 48 hours. In kind it is cell-based. Here is the method:
as §2, §3

In series [10] the test system is intracellular ROS levels. As to the kind of experiment: Measurement of reactive oxygen species with CM-H2DCFDA. Format: cell-based. Conditions: 30 minutes treatment. The protocol: Cells were loaded with 10 μM general ROS indicator CM-H2DCFDA in serum free DMEM for 30 minutes at 37° C. in the dark. After a 5-minute recovery in complete DMEM, cells were treated with indicated concentrations of MCB-613 for 30 minutes, then fixed and examined by fluorescence microscopy.

The test system of series [11] is HeLa cells. As to the kind of experiment: MTS cell viability assay, HeLa cells. In kind it is cell-based. Conditions: SRC-3 KO vs WT HeLa, 24 hours.
The test system of series [12] is HeLa cells. The series can be described thus: Cytoplasmic vacuolization of cancer cells. Format: cell-based. The settings on record: HeLa, MCF-7 or MDA-MB-231 cells.
For series [13], the system named is Abl kinase. As to the kind of experiment: CrkL (Y207) phosphorylation as marker for Abl activation in HeLa cells. Format: cell-based. The settings on record: 1 hour and 4 hours. The protocol: For Western blotting, cells were harvested and lysed in lysis buffer (50 mM Tris, pH 8.0, 150 mM NaCl, 10% glycerol, 0.5% NP40, protease and phosphatase inhibitor) and then centrifuged for 15 min at 14000 rpm at 4° C. After total cellular protein concentration was determined by Bradford analysis (Bio-Rad, Hercules, Calif.), protein lysates were loaded onto and resolved by sodium dodecyl sulfate-polyacrylamide gel electrophoresis (SDS-PAGE) and transferred to PVDF membranes (BioRad) which were blocked and incubated with indicated antibodies. For immunoprecipitation, 10 μg of plasmid encoding FLAG-SRC-3 was transfected into HeLa cells with 90% confluence in one 10 cm plate with lipofectamine 2000 (Invitrogen). Twenty-four hours after transfection, the cells were treated with MCB-613 for one hour and lysed with lysis buffer (25 mM Tris-Cl pH7.5, 150 mM NaCl, 5% glycerol, 1 mM EDTA, 1% Triton X-100, protease and phosphatase inhibitor) at 4° C. After a 30-second sonication, the lysate was cleared by centrifugation at 14000 rpm at 4° C. for 15 minutes and was incubated with anti-Flag-M2 agarose affinity gel (Sigma) for four hours. The agarose gel was washed four times with washing buffer (25 mM Tris pH 8.0, 150 mM NaCl, 1 mM EDTA, 1% Triton X-100) and resuspended with SDS loading buffer for Western blotting. […]

Series [14] concerns MMP13 expression. The series can be described thus: qRT-PCR of endogenous MMP13 in MDA-MB-231 cells. The settings on record: 24 hours. In kind it is cell-based.
Series [15] concerns HeLa cells. As to the kind of experiment: Western blot of stress, UPR, autophagy and apoptosis markers in HeLa cells. In kind it is cell-based. Here is the method:
For Western blotting, cells were harvested and lysed in lysis buffer (50 mM Tris, pH 8.0, 150 mM NaCl, 10% glycerol, 0.5% NP40, protease and phosphatase inhibitor) and then centrifuged for 15 min at 14000 rpm at 4° C. After total cellular protein concentration was determined by Bradford analysis (Bio-Rad, Hercules, Calif.), protein lysates were loaded onto and resolved by sodium dodecyl sulfate-polyacrylamide gel electrophoresis (SDS-PAGE) and transferred to PVDF membranes (BioRad) which were blocked and incubated with indicated antibodies. For immunoprecipitation, 10 μg of plasmid encoding FLAG-SRC-3 was transfected into HeLa cells with 90% confluence in one 10 cm plate with lipofectamine 2000 (Invitrogen). Twenty-four hours after transfection, the cells were treated with MCB-613 for one hour and lysed with lysis buffer (25 mM Tris-Cl pH7.5, 150 mM NaCl, 5% glycerol, 1 mM EDTA, 1% Triton X-100, protease and phosphatase inhibitor) at 4° C. After a 30-second sonication, the lysate was cleared by centrifugation at 14000 rpm at 4° C. for 15 minutes and was incubated with anti-Flag-M2 agarose affinity gel (Sigma) for four hours. The agarose gel was washed four times with washing buffer (25 mM Tris pH 8.0, 150 mM NaCl, 1 mM EDTA, 1% Triton X-100) and resuspended with SDS loading buffer for Western blotting.

T1 sequence (Q15596 whole entry): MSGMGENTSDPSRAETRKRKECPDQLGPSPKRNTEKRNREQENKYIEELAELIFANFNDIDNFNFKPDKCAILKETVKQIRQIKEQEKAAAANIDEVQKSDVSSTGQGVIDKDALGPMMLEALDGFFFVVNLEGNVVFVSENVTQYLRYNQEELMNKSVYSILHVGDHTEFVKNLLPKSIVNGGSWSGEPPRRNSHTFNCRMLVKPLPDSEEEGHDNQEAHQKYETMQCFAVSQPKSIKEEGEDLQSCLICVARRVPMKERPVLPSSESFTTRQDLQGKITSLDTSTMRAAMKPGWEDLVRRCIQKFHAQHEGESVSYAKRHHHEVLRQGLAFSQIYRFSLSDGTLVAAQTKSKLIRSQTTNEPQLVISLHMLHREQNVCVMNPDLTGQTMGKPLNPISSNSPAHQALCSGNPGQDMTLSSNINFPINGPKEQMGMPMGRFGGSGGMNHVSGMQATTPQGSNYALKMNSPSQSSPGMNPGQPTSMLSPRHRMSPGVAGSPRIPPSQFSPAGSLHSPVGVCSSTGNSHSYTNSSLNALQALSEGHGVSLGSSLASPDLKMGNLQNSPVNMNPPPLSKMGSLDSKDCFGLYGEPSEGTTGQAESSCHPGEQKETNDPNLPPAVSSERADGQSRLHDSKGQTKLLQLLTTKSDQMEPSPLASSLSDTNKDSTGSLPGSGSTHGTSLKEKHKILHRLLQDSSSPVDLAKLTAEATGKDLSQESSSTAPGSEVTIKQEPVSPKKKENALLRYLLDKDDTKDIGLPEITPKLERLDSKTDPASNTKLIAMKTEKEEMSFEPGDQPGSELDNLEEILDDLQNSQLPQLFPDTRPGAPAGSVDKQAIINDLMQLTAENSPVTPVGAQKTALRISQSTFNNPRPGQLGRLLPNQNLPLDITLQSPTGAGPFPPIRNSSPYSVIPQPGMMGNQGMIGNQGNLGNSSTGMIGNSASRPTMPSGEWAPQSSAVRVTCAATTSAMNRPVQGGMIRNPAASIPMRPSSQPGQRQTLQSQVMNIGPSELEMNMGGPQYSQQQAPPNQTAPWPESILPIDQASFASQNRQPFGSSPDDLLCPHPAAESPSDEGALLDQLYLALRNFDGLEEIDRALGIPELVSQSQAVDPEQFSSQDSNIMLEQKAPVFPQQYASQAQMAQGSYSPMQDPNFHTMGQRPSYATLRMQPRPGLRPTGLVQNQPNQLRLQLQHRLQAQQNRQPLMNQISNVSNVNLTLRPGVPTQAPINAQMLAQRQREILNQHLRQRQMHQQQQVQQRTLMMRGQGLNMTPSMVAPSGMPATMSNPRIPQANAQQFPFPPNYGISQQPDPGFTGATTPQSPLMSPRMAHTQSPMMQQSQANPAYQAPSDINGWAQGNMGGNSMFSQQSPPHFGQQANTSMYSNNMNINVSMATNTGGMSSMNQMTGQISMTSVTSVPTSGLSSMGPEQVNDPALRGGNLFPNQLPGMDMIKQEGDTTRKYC

Take `CCC1CC(=Cc2cccnc2)C(=O)C(=Cc2cccnc2)C1` (stereo not shown) [MCB-613, 4-Ethyl-2,6-bis-pyridin-3-ylmethylene-cyclohexanone]: the “induction in the activity of pBIND-SRC-2” value in [1] is no more than 160 fold. Besides, the “stimulation of GAL4-PGC-1α coactivator fusion protein” value in [2] was “failing to stimulate”. Moreover, in series [3], the “activity of GAL4-VP16 fusion protein” value is “minimally increasing the activity”. Further, in [4], the “concentration affecting the fluorescence of the bHLH domain” value was 2 µM. The “concentration required to detect fluorescence quenching of the CID” value in series [5] is reported as “at least 20 μM”. Moreover, the “cytotoxicity, cell viability” value in series [6], in series [7] and in series [8] was “efficiently kill” in each case. Moreover, the “cytotoxicity to normal cells” value in [9] is “resistant”. In addition, in series [10], the “intracellular ROS levels” value was “rapid and marked increase”. Moreover, in series [11], the “viability of SRC-3 KO HeLa cells compared with WT cells” value is on record as “less affected”. In [12], the “vacuolization in cancer cells” value is recorded as “induced extensive vacuolization”. Further, in [13], the “activation of Abl (CrkL Y207 phosphorylation)” value is on record as “activation of Abl could be observed as early as one hour”. In addition, the “endogenous MMP13 expression” value in series [14] was “activated”. In addition, in series [15] (4-5 hours), the “proteasome function and ER stress (polyubiquitinated proteins, UPR markers)” value is “leads to proteasome dysfunction and ER stress”. In series [15] (24 hours), the “autophagy and apoptosis markers” value is “led to the induction of LC3BII and caspase-3 cleavage”.
